Experimental data: the NIST ThermoML archive (doi:10.1021/acs.jced.8b01135)

Assay: xn = mol fraction of the nth substance listed
Conditions: 102 kPa, Liquid; for speed of sound: Frequency=3 MHz, Single path-length method; for mass density: Vibrating tube method; for viscosity: Concentric cylinders viscometry

CCCCCCCCCCC1CCCCC1 [decylcyclohexane] + CCCCCCCCCCCC
Conditions | mass density [kg/m3] | speed of sound [m/s] | viscosity [mPa·s]
288.15 K, x1 = 0.1003 | 760.76 | 1329.7 | –
288.15 K, x1 = 0.2194 | 770.26 | 1344 | –
288.15 K, x1 = 0.3002 | 776.43 | 1353.5 | –
288.15 K, x1 = 0.4004 | 783.8 | 1364.7 | –
288.15 K, x1 = 0.4999 | 790.8 | 1375.6 | –
288.15 K, x1 = 0.5993 | 797.51 | 1386.2 | –
288.15 K, x1 = 0.7001 | 804.03 | 1396.3 | –
288.15 K, x1 = 0.8005 | 810.28 | 1406.3 | –
288.15 K, x1 = 0.8991 | 816.18 | 1415.8 | –
288.15 K, x1 = 1 | 821.93 | 1425.2 | –
293.15 K, x1 = 0.1003 | 757.16 | 1310.3 | 1.7
293.15 K, x1 = 0.2194 | 766.69 | 1324.7 | 1.98
293.15 K, x1 = 0.3002 | 772.89 | 1334.2 | 2.19
293.15 K, x1 = 0.4004 | 780.28 | 1345.7 | 2.48
293.15 K, x1 = 0.4999 | 787.31 | 1356.6 | 2.82
293.15 K, x1 = 0.5993 | 794.05 | 1367.1 | 3.2
293.15 K, x1 = 0.7001 | 800.58 | 1377.5 | 3.64
293.15 K, x1 = 0.8005 | 806.85 | 1387.5 | 4.13
293.15 K, x1 = 0.8991 | 812.78 | 1397.1 | 4.68
293.15 K, x1 = 1 | 818.54 | 1406.4 | 5.34
298.15 K, x1 = 0.1003 | 753.56 | 1290.9 | –
298.15 K, x1 = 0.2194 | 763.13 | 1305.4 | –
298.15 K, x1 = 0.3002 | 769.34 | 1315 | –
298.15 K, x1 = 0.4004 | 776.76 | 1326.8 | –
298.15 K, x1 = 0.4999 | 783.81 | 1337.8 | –
298.15 K, x1 = 0.5993 | 790.58 | 1348.6 | –
298.15 K, x1 = 0.7001 | 797.13 | 1358.8 | –
298.15 K, x1 = 0.8005 | 803.42 | 1368.8 | –
298.15 K, x1 = 0.8991 | 809.36 | 1378.5 | –
298.15 K, x1 = 1 | 815.16 | 1387.7 | –
303.15 K, x1 = 0.1003 | 749.96 | 1271.8 | 1.43
303.15 K, x1 = 0.2194 | 759.57 | 1286.4 | 1.65
303.15 K, x1 = 0.3002 | 765.8 | 1296 | 1.79
303.15 K, x1 = 0.4004 | 773.24 | 1308.1 | 2.02
303.15 K, x1 = 0.4999 | 780.31 | 1319.1 | 2.27
303.15 K, x1 = 0.5993 | 787.1 | 1329.7 | 2.55
303.15 K, x1 = 0.7001 | 793.68 | 1340.2 | 2.88
303.15 K, x1 = 0.8005 | 799.99 | 1350.4 | 3.23
303.15 K, x1 = 0.8991 | 805.95 | 1360.1 | 3.63
303.15 K, x1 = 1 | 811.78 | 1369.1 | 4.09
313.15 K, x1 = 0.1003 | 742.75 | 1234.1 | 1.21
313.15 K, x1 = 0.2194 | 752.43 | 1248.9 | 1.39
313.15 K, x1 = 0.3002 | 758.71 | 1258.7 | 1.49
313.15 K, x1 = 0.4004 | 766.19 | 1271 | 1.67
313.15 K, x1 = 0.4999 | 773.32 | 1282.2 | 1.87
313.15 K, x1 = 0.5993 | 780.16 | 1292 | 2.08
313.15 K, x1 = 0.7001 | 786.78 | 1303.7 | 2.33
313.15 K, x1 = 0.8005 | 793.13 | 1313.9 | 2.6
313.15 K, x1 = 0.8991 | 799.14 | 1323.7 | 2.89
313.15 K, x1 = 1 | 805.02 | 1332.8 | 3.23
323.15 K, x1 = 0.1003 | 735.51 | 1197.2 | 1.04
323.15 K, x1 = 0.2194 | 745.28 | 1212.3 | 1.19
323.15 K, x1 = 0.3002 | 751.59 | 1222.1 | 1.29
323.15 K, x1 = 0.4004 | 759.13 | 1234.7 | 1.41
323.15 K, x1 = 0.4999 | 766.31 | 1246 | 1.56
323.15 K, x1 = 0.5993 | 773.2 | 1257 | 1.73
323.15 K, x1 = 0.7001 | 779.88 | 1267.7 | 1.92
323.15 K, x1 = 0.8005 | 786.28 | 1278.1 | 2.13
323.15 K, x1 = 0.8991 | 792.33 | 1288 | 2.35
323.15 K, x1 = 1 | 798.26 | 1297.2 | 2.6
333.15 K, x1 = 0.1003 | 728.24 | 1161.3 | 0.904
333.15 K, x1 = 0.2194 | 738.08 | 1176.5 | 1.02
333.15 K, x1 = 0.3002 | 744.46 | 1186.5 | 1.11
333.15 K, x1 = 0.4004 | 752.05 | 1199.1 | 1.2
333.15 K, x1 = 0.4999 | 759.29 | 1210.6 | 1.32
333.15 K, x1 = 0.5993 | 766.23 | 1221.8 | 1.46
333.15 K, x1 = 0.7001 | 772.96 | 1232.7 | 1.61
333.15 K, x1 = 0.8005 | 779.42 | 1243.2 | 1.78
333.15 K, x1 = 0.8991 | 785.51 | 1253.2 | 1.95
333.15 K, x1 = 1 | 791.49 | 1262.7 | 2.15
